From patent US20070128217A1 (priority 2003, published 2007)

Assays:
[1] = system: rabbit serum obtained by immunizing a rabbit with the SARS-CoV strain Frankfurt 1; type: binding; parameters: Binding of a rabbit serum to linear peptides / Binding of a rabbit serum to looped peptides / Rabbit serum linear peptides / Rabbit serum looped peptides / Binding of a rabbit serum to linear peptides of protein N of SARS-CoV Urbani (Rabbit serum linear peptides) / Binding of a rabbit serum to looped/cyclic peptides of protein N of SARS-CoV Urbani (Rabbit serum looped peptides): unit not given here
[2] = system: control sera (pooled serum of ten healthy LUMC hospital workers; commercial negative donor pooled serum from the Dutch bloodbank); type: binding, human; parameters: Binding of Control serum LUMC to linear peptides / Binding of Control serum Blood-bank to linear peptides / Binding of Control serum LUMC to looped peptides / Binding of Control Serum Blood-Bank to Looped peptides / Binding of Control serum LUMC to linear peptides of the protein M of SARS-CoV Urbani / Binding of Control serum Blood-bank to linear peptides of the protein M of SARS-CoV Urbani / Binding of Control serum LUMC to looped peptides of the protein M of SARS-CoV Urbani / Binding of Control Serum Blood-Bank to Looped peptides of the protein M of SARS-CoV Urbani: unit not given here

Sequence: ADNGTITVEELKQLL
- Recognition of the peptide by the rabbit serum [1]: recognized
- Binding of Control Serum Blood-Bank to Looped peptides of the protein M of SARS-CoV Urbani [2]: 0.5
- Binding of Control serum Blood-bank to linear peptides of the protein M of SARS-CoV Urbani [2]: 0.7
- Binding of Control serum LUMC to linear peptides of the protein M of SARS-CoV Urbani [2]: 0.5
- Binding of Control serum LUMC to looped peptides of the protein M of SARS-CoV Urbani [2]: 0.7

Sequence: AMDPIYDEPTTTTSV
- Binding of a rabbit serum to linear peptides [1]: 0.1
- Binding of a rabbit serum to looped peptides [1]: 0.4
- Binding of Control Serum Blood-Bank to Looped peptides [2]: 0.7
- Binding of Control serum Blood-bank to linear peptides [2]: 0.8
- Binding of Control serum LUMC to linear peptides [2]: 0.6
- Binding of Control serum LUMC to looped peptides [2]: 0.7

Sequence: ANPAMDPIYDEPTTT
- Binding of a rabbit serum to linear peptides [1]: 0.1
- Binding of a rabbit serum to looped peptides [1]: 0.4
- Binding of Control Serum Blood-Bank to Looped peptides [2]: 0.4
- Binding of Control serum Blood-bank to linear peptides [2]: 0.4
- Binding of Control serum LUMC to linear peptides [2]: 0.3
- Binding of Control serum LUMC to looped peptides [2]: 0.4

Sequence: ASQRVGTDSGFAAYN
- Rabbit serum linear peptides [1]: 0.4
- Rabbit serum looped peptides [1]: 0.1
- Binding of Control Serum Blood-Bank to Looped peptides of the protein M of SARS-CoV Urbani [2]: 0.7
- Binding of Control serum Blood-bank to linear peptides of the protein M of SARS-CoV Urbani [2]: 0.8
- Binding of Control serum LUMC to linear peptides of the protein M of SARS-CoV Urbani [2]: 0.5
- Binding of Control serum LUMC to looped peptides of the protein M of SARS-CoV Urbani [2]: 0.8

Sequence: AYCCNIVNVSLVKPT
- Binding of a rabbit serum to linear peptides [1]: 0.3
- Binding of a rabbit serum to looped peptides [1]: 0.2
- Binding of Control Serum Blood-Bank to Looped peptides [2]: 0.9
- Binding of Control serum Blood-bank to linear peptides [2]: 0.9
- Binding of Control serum LUMC to linear peptides [2]: 0.9
- Binding of Control serum LUMC to looped peptides [2]: 0.8

Sequence: CVRGTTVLLKEPCPS
- Rabbit serum linear peptides [1]: 0.5
- Rabbit serum looped peptides [1]: 0.5
- Binding of Control Serum Blood-Bank to Looped peptides [2]: 0.9
- Binding of Control serum Blood-bank to linear peptides [2]: 0.8
- Binding of Control serum LUMC to linear peptides [2]: 0.7
- Binding of Control serum LUMC to looped peptides [2]: 0.9

Sequence: DANYFVCWHTHNYDY
- Binding of a rabbit serum to linear peptides [1]: 0.1
- Binding of a rabbit serum to looped peptides [1]: 0.5
- Binding of Control Serum Blood-Bank to Looped peptides [2]: 0.5
- Binding of Control serum Blood-bank to linear peptides [2]: 0.8
- Binding of Control serum LUMC to linear peptides [2]: 0.8
- Binding of Control serum LUMC to looped peptides [2]: 1.0
